Data set [1] has as its system MCF-7 (ER+/PR+/HER2−) breast cancer cells. The data set can be described thus: Growth inhibition of MCF-7 cells (Hoechst 33342 fluorescence vs non-treated wells). The note with it: Homo sapiens, dose-response 0.32-320 μM. It counts as cell-based. Here is the method: (§1) Olaparib was chosen because it is one of a few FDA-approved chemotherapeutics for triple-negative breast cancer.
(§2) Cells were incubated for 15 minutes at 37° C.

In data set [2] the test system is SK-BR-3 (ER−/PR−/HER2+) breast cancer cells. Briefly: Growth inhibition of SK-BR-3 cells. It counts as cell-based. Particulars: Homo sapiens, dose-response 0.32-320 μM. Here is the method:
as §1, §2

The test system of data set [3] is triple-negative MDA-MB-231 breast cancer cells. The data set can be described thus: Growth inhibition of MDA-MB-231 cells. It counts as cell-based. The note with it: for IC50: Homo sapiens; for IC50 / Growth Inhibition IC50: dose-response 0.32-320 μM. Here is the method: as §1, §2
In data set [4] the test system is MCF-10A non-cancerous breast cells. The data set can be described thus: Growth inhibition of MCF-10A cells (negative control line). It counts as cell-based. Particulars: Homo sapiens, dose-response 0.32-320 μM. As to the method: as §1, §2
For data set [5], the system named is MCF-7 breast cancer cells. Briefly: Cytotoxicity (cell death, propidium iodide) in MCF-7 cells. Particulars: Homo sapiens, MCF7, dose-response 0.32-320 μM, read-out: Cytotoxicity EC50. It counts as cell-based.
Data set [6] deals with SK-BR-3 breast cancer cells. Briefly: Cytotoxicity (cell death, propidium iodide) in SK-BR-3 cells. It counts as cell-based. The note with it: for EC50: Homo sapiens, dose-response 0.32-320 μM; for cytotoxicity EC50: SK-BR-3, 72 h / after the first 24 h.
Data set [7] is described as follows: Cytotoxicity (cell death, propidium iodide) in MCF-10A cells. It counts as cell-based. Particulars: human, MCF-10A non-cancerous breast cells. As to the method:
(§3) To assess the selectivity of cytotoxicity for cancer cells, all drugs and compounds were screened against MCF-10A, non-cancerous breast cells.
as §2

Data set [8] has as its system MCF-10A non-cancerous breast cells. The data set is described as above. It counts as cell-based. As to the method:
as §3, §2

In data set [9] the test system is triple-negative MDA-MB-231 breast cancer cells. The data set can be described thus: cells. The note with it: Homo sapiens, read-out: Cytotoxicity EC50.
Data set [10] shares this test system.
The subject of another data set is newborn rat spinal cord. Particulars: cited from earlier work.
In data set [11] the test system is central nervous system (CNS). The note with it: cited from earlier work.
The mark [12] stands for this setting: MCF7, 24 h, MCF-7, 24 h exposure.
Where [13] appears, read: MCF7, 72 h, MCF-7, 72 h exposure.

These results are taken from patent publication US12435032B2, “L-γ-methyleneglutamine compounds and methods of use” (University of Mississippi, priority 2019, dated 2025).

Structures are written as SMILES. Like-named read-outs stand apart in the source and are kept apart here. Where only a bound is given, the exact number is not on record here.

A word on the IC50: it is the concentration at which inhibition is half-maximal. Lower therefore signals greater potency in that assay. In general, EC50 refers to the midpoint of the concentration-response curve. `C=C(C[C@H](N)C(=O)O)C(=O)NCc1ccc(F)cc1` [Compound 5, (S)-2-amino-4-((4-fluorobenzyl)carbamoyl)pent-4-enoic acid]: the half-maximal inhibitory concentration (IC50) was 590 µM in data set [1] (setting [12]); 85.3 µM in data set [1] (setting [13]); 3.9 µM in data set [2] (SK-BR-3, 24 h exposure); 4.5 µM in [2] (SK-BR-3, 72 h exposure); 350 µM in data set [3] (MDA-MB-231, 24 h exposure); 339 µM in [3] (MDA-MB-231, 72 h exposure). Besides, the IC50 in [4] (24 h exposure) and in data set [4] (72 h exposure) was > 1000 µM in each case. In data set [3] (MDA-MB-231, throughout testing (24 h and 72 h)), the “growth inhibition potency compared with olaparib” value is “equipotent to olaparib”. The EC50 in [5] (MCF-7, 24 h exposure) is > 1000 µM; in data set [5] (MCF-7, 72 h exposure) it was 54.5 µM; in [6] (SK-BR-3, 24 h exposure), > 1000 µM; in [6] (SK-BR-3, 72 h exposure), 0.4 µM; in data set [9] (MDA-MB-231, 24 h) it was 265 µM; in [9] (MDA-MB-231, 72 h) it was 262 µM. Moreover, the “cytotoxicity” value in data set [6] (SK-BR-3, 24 h exposure) was “devoid of toxicity”. In addition, the “cytotoxicity EC50” value in data set [6] was “cell death was apparent”; in data set [8] (within the first 24 h) it was “EC50 below the millimolar range”. In addition, the EC50 at 24 h in data set [7] (24 h exposure) was 796 µM; in data set [7] (head prints 24 h), > 1000 µM.

For `C=C(C[C@H](N)C(=O)O)C(=O)Nc1ccccc1` [Compound 3, (S)-2-amino-4-(phenylcarbamoyl) pent-4-enoic acid], the IC50 was > 1000 µM in data set [1] (setting [12]); 250 µM in data set [1] (setting [13]); 36.9 µM in data set [2] (SK-BR-3, 24 h exposure); 1.7 µM in data set [2] (SK-BR-3, 72 h exposure); 777 µM in data set [3] (MDA-MB-231, 24 h exposure); 814 µM in [3] (MDA-MB-231, 72 h exposure). For the same compound, the half-maximal inhibitory concentration (IC50) in [4] (24 h exposure) and in data set [4] (72 h exposure) was > 1000 µM in each case. Further, the “Growth Inhibition IC50” value in data set [3] (MDA-MB-231, 72 h exposure) is “poorer potency than olaparib”. For the same compound, the EC50 was 421 µM in data set [5] (MCF-7, 24 h exposure); 2 µM in data set [5] (MCF-7, 72 h exposure); 0.2 µM in data set [6] (SK-BR-3, 24 h exposure); > 1000 µM in data set [6] (SK-BR-3, 72 h exposure); 541 µM in [9] (MDA-MB-231, 24 h); 409 µM in data set [9] (MDA-MB-231, 72 h). Moreover, in data set [6], the “cytotoxicity EC50” value is given as “much reduced toxicity”. Besides, the EC50 at 24 h in data set [7] (24 h exposure) and in [7] (head prints 24 h) was > 1000 µM each time. Also, the “cytotoxic EC50 compared with positive controls” value in data set [10] is “significantly greater than tamoxifen”.

As for `C=C(C[C@H](N)C(=O)O)C(=O)O` [Compound 2, L-γ-methyleneglutamic acid], the “potency relative to L-glutamate as a depolarizing agent” value with newborn rat spinal cord was 10 times. Further, the “central nervous system (CNS) inhibitory activity” value in data set [11] was “strong”.

For the compound `C=C(C[C@H](N)C(=O)O)C(=O)NCc1ccccc1` [Compound 4, (S)-2-amino-4-(benzylcarbamoyl) pent-4-enoic acid], the IC50 was > 1000 µM in [1] (setting [12]); 197 µM in data set [1] (setting [13]); 74.2 µM in [2] (SK-BR-3, 24 h exposure); 0.6 µM in [2] (SK-BR-3, 72 h exposure); 481 µM in data set [3] (MDA-MB-231, 24 h exposure); 649 µM in data set [3] (MDA-MB-231, 72 h exposure). Further, the IC50 in data set [4] (24 h exposure) and in [4] (72 h exposure) was > 1000 µM each time. Further, in data set [3] (MDA-MB-231, 72 h exposure), the “Growth Inhibition IC50” value is given as “poorer potency than olaparib”. Moreover, the EC50 in data set [5] (MCF-7, 24 h exposure) was 664 µM; in data set [5] (MCF-7, 72 h exposure) it was 218 µM; in data set [6] (SK-BR-3, 24 h exposure), 0.1 µM; in data set [6] (SK-BR-3, 72 h exposure) it was > 1000 µM; in data set [9] (MDA-MB-231, 24 h), 374 µM; in data set [9] (MDA-MB-231, 72 h), 980 µM. Moreover, the entries for the “cytotoxicity EC50” value in [6] and in data set [8] (after the first 24 h) were “much reduced toxicity” and “EC50 in the micromolar range”, respectively. For the same compound, the figures for the EC50 at 24 h in data set [7] (24 h exposure) and in [7] (head prints 24 h) were > 1000 µM and 563 µM, respectively.
